Source: ChEMBL document CHEMBL5325396, “Discovery of Novel Acridane-Based Tubulin Polymerization Inhibitors with Anticancer and Potential Immunomodulatory Effects” (J Med Chem, 2023)
pIC50: −log10 of the molar value.

Experiments:
B16-F10 [1] = test: Induction of apoptosis in mouse B16-F10 cells assessed as early apoptotic cells at 50 nM incubated for 48 hrs by annexinV-FITC/PI staining based flow cytometry (reference value: 4.25 %); assay type: functional
B16-F10 [2] = test: Inhibition of cell migration in mouse B16-F10 cells assessed as wound area recovery upto 50 nM incubated for 24 hrs by wound healing assay relative to control; assay type: functional; set-up: scale not given: the % may be the effect or the level left; settings: up to 50 nM
B16-F10 [3] = test: Induction of apoptosis in mouse B16-F10 cells assessed as late apoptotic cells at 50 nM incubated for 48 hrs by annexinV-FITC/PI staining based flow cytometry (reference value: 2.06 %); assay type: functional
[4] = Toxicity in C57 mouse allografted with mouse B16-F10 cells assessed as pathological damage in kidney at 10 mg/kg, ip administered consecutively for 14 days by H and E staining based analysis; assay type: organism-based; settings: in vivo, 336 h, time 14 day
B16-F10 [5] = test: Induction of cell cycle arrest in mouse B16-F10 cells assessed as accumulation at G1 phase at 50 nM incubated for 24 hrs by PI staining based flow cytometry (reference value: 52.77 %); assay type: functional
B16-F10 [6] = test: Induction of apoptosis in mouse B16-F10 cells assessed as viable cells at 10 nM incubated for 48 hrs by annexinV-FITC/PI staining based flow cytometry (reference value: 93.6 %); assay type: functional; settings: read-out: Activity
B16-F10 [7] = test: Induction of cell cycle arrest in mouse B16-F10 cells assessed as accumulation at G1 phase at 25 nM incubated for 24 hrs by PI staining based flow cytometry (reference value: 52.77 %); assay type: functional
B16-F10 [8] = test: Inhibition of cell migration in mouse B16-F10 cells assessed as wound area ratio at 50 nM incubated for 24 hrs by wound healing assay relative to control; assay type: functional
B16-F10 [9] = test: Immunomodulatory activity in mouse B16-F10 cells allografted in C57 mouse assessed as increase in CD3-positive CD4-positive cells at 10 mg/kg, ip administered consecutively for 14 days (reference value: 8.35 %); assay type: functional; settings: time 14 day
HeLa = test: cells; settings: Homo sapiens, 48 h
Description: Antiproliferative activity against human HeLa cells incubated for 48 hrs by MTT assay

[10] = Toxicity in C57 mouse allografted with mouse B16-F10 cells assessed as pathological damage in liver at 10 mg/kg, ip administered consecutively for 14 days by H and E staining based analysis; assay type: organism-based; settings: in vivo, 336 h, time 14 day
Tubulin = Tubulin (Sus scrofa, UniProt P02554+P02550); test: Inhibition of tubulin polymerization of pig brain microtubules by spectroscopic analysis; assay type: tissue-based
B16-F10 [11] = test: Induction of cell cycle arrest in mouse B16-F10 cells assessed as accumulation at G2 phase at 10 nM incubated for 24 hrs by PI staining based flow cytometry (reference value: 23.04 %); assay type: functional
B16-F10 [12] = test: Immunomodulatory activity in mouse B16-F10 cells allografted in C57 mouse assessed as decrease in PD-L1 level at 10 mg/kg, ip administered consecutively for 14 days relative to control; assay type: functional; set-up: scale not given: the % may be the effect or the level left; settings: time 14 day
B16-F10 [13] = test: Induction of apoptosis in mouse B16-F10 cells assessed as late apoptotic cells at 10 nM incubated for 48 hrs by annexinV-FITC/PI staining based flow cytometry (reference value: 2.06 %); assay type: functional
B16-F10 [14] = test: Induction of cell cycle arrest in mouse B16-F10 cells assessed as accumulation at G1 phase at 10 nM incubated for 24 hrs by PI staining based flow cytometry (reference value: 52.77 %); assay type: functional
HepG2 = test: Antiproliferative activity against human HepG2 cells incubated for 48 hrs by MTT assay; assay type: functional, cell-based; settings: HepG2, 48 h
HCT-116 = test: Antiproliferative activity against human HCT-116 cells incubated for 48 hrs by MTT assay; assay type: functional, cell-based; settings: HCT-116, 48 h
B16-F10 [15] = test: Antiproliferative activity against mouse B16-F10 cells incubated for 48 hrs by MTT assay; assay type: functional, cell-based; settings: B16-F10, 48 h
B16-F10 [16] = test: Antitumor activity against mouse B16-F10 cells allografted in C57 mouse assessed as tumor growth inhibition at 10 mg/kg, ip administered consecutively for 14 days in presence of NP-19; assay type: functional; settings: B16-F10, 336 h, time 14 day, read-out: TGI
B16-F10 [17] = test: Induction of apoptosis in mouse B16-F10 cells assessed as viable cells at 50 nM incubated for 48 hrs by annexinV-FITC/PI staining based flow cytometry (reference value: 93.6 %); assay type: functional; settings: read-out: Activity
B16-F10 [18] = test: Immunomodulatory activity in mouse B16-F10 cells allografted in C57 mouse assessed as increase in CD3-positive CD8-positive cells at 10 mg/kg, ip administered consecutively for 14 days (reference value: 6.66 %); assay type: functional; settings: time 14 day
B16-F10 [19] = test: Inhibition of cell migration in mouse B16-F10 cells assessed as wound area ratio at 10 nM incubated for 24 hrs by wound healing assay relative to control; assay type: functional
B16-F10 [20] = test: Induction of apoptosis in mouse B16-F10 cells assessed as late apoptotic cells at 25 nM incubated for 48 hrs by annexinV-FITC/PI staining based flow cytometry (reference value: 2.06 %); assay type: functional
B16-F10 [21] = test: Inhibition of colony formation in mouse B16-F10 cells at 50 uM incubated for 24 hrs and subsequent replacement of medium without compound measured after 10 to 14 days by crystal violet staining based assay relative to control; assay type: functional
B16-F10 [22] = test: Induction of apoptosis in mouse B16-F10 cells assessed as viable cells at 25 nM incubated for 48 hrs by annexinV-FITC/PI staining based flow cytometry (reference value: 93.6 %); assay type: functional; settings: read-out: Activity
B16-F10 [23] = test: Inhibition of tubulin polymerization in mouse B16-F10 cells assessed as disruption of microtubule network incubated for 6 hrs by fluorescence microscopy; assay type: cell-based; settings: dose 10-50 nM
B16-F10 [24] = test: Inhibition of tubulin polymerization in mouse B16-F10 cells assessed as loss of cellular structure incubated for 6 hrs by fluorescence microscopy; assay type: cell-based; settings: dose 10-50 nM
B16-F10 [25] = test: Induction of cell cycle arrest in mouse B16-F10 cells assessed as accumulation at G2 phase at 50 nM incubated for 24 hrs by PI staining based flow cytometry (reference value: 23.04 %); assay type: functional
B16-F10 [26] = test: Induction of apoptosis in mouse B16-F10 cells assessed as necrotic cells at 50 nM incubated for 48 hrs by annexinV-FITC/PI staining based flow cytometry (reference value: 0.064 %); assay type: functional
B16-F10 [27] = test: Immunomodulatory activity in mouse B16-F10 cells allografted in C57 mouse assessed as increase in CD3-positive CD4-positive cells at 10 mg/kg, ip administered consecutively for 14 days in presence of NP-19 (reference value: 8.35 %); assay type: functional; settings: time 14 day
[28] = Toxicity in C57 mouse allografted with mouse B16-F10 cells assessed as body weight loss at 10 mg/kg, ip administered consecutively for 14 days in presence of NP-19; assay type: organism-based; settings: in vivo, 336 h, time 14 day
B16-F10 [29] = test: Immunomodulatory activity in mouse B16-F10 cells allografted in C57 mouse assessed as decrease in PD-L1 level at 10 mg/kg, ip administered consecutively for 14 days in presence of NP-19 relative to control; assay type: functional; set-up: scale not given: the % may be the effect or the level left; settings: time 14 day
B16-F10 [30] = test: Antitumor activity against mouse B16-F10 cells allografted in C57 mouse assessed as tumor growth inhibition at 10 mg/kg, ip administered consecutively for 14 days; assay type: functional; settings: B16-F10, 336 h, time 14 day, read-out: TGI

pIC50 (HeLa): 7.43 | IC50 (Tubulin): 1.5 µM | pIC50 (HepG2): 7.39 | pIC50 (HCT-116): 7.64 | pIC50 (B16-F10 [15]): 7.70
Structure (SMILES): COc1ccc2c(c1F)Cc1ccccc1N2C(=O)c1cc(OC)c(OC)c(OC)c1
Activity (B16-F10 [1]): 36.8% | Activity (B16-F10 [2]): 59.63% | Activity (B16-F10 [3]): 13.4% | Activity [4]: Non-Toxic | Activity (B16-F10 [5]): 3.24% | viability at 0.01 µM (B16-F10 [6]): 91% | Activity (B16-F10 [7]): 16.55% | Ratio (B16-F10 [8]): 7.2% | Activity (B16-F10 [9]): 10.1% | Activity [10]: Non-Toxic | Activity (B16-F10 [11]): 24.07% | Activity (B16-F10 [12]): ~10% | Activity (B16-F10 [13]): 3.17% | Activity (B16-F10 [14]): 50.88% | inhibition in vivo at 10 mg/kg (B16-F10 [16]): 77.6% | viability at 0.05 µM (B16-F10 [17]): 49.3% | Activity (B16-F10 [18]): 8.17% | Ratio (B16-F10 [19]): 31.52% | Activity (B16-F10 [20]): 6.63% | inhibition at 50 µM (B16-F10 [21]): ~100% | viability at 0.025 µM (B16-F10 [22]): 70.4% | inhibition (B16-F10 [23]): Dose-Dependent Effect | inhibition (B16-F10 [24]): Dose-Dependent Effect | Activity (B16-F10 [25]): 71.11% | Activity (B16-F10 [26]): 0.61% | Activity (B16-F10 [27]): 26.3% | Activity [28]: Non-Toxic | Activity (B16-F10 [29]): ~60% | inhibition in vivo at 10 mg/kg (B16-F10 [30]): 65.1%
